Experiments:
Assay type in all cases: in vivo
[1] = test system: early watergrass (Echinochloa oryzicola Vasing); assay: Test Example 1: herbicidal effect by soil application to paddy field; conditions: paddy field soil application; active ingredient 1,000 g per 1 hectare; wettable powder added dropwise to water surface the day after sowing; examined on the 21st day after application
Outline: (§1)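 Under greenhouse conditions, seeds sown on puddled paddy soil in 100 cm2 pots under 3 cm of standing water received the test compound; injury was assessed with a standard scoring scheme three weeks (day 21) after treatment.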

[2] = test system: heartshape false pickerelweed (Monochoria vaginalis (Burm.f.) C.Presl); assay: as above; conditions: paddy field soil application; active ingredient 1,000 g per 1 hectare; wettable powder added dropwise to water surface the day after sowing; examined on the 21st day after application
Outline: as §1

[3] = test system: Japanese bulrush (Scirpus juncoides Roxb.); assay: as above; conditions: paddy field soil application; active ingredient 1,000 g per 1 hectare; wettable powder added dropwise to water surface the day after sowing; examined on the 21st day after application
Outline: as §1

[4] = test system: green foxtail (Setaria viridis (L.) P. Beauv.); assay: Test Example 2: herbicidal effect by soil application to upland field; conditions: soil surface spray, upland field soil, 1,000 g active ingredient per hectare, 21st day after application
Outline: (§2)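 A standard visual rating of herbicidal effect, made 21 days after treatment, gives the value. Treatment consisted of a uniform spray of water-diluted wettable powder on the soil covering newly sown seeds, equivalent to 1,000 g active ingredient and 1,000 liters per hectare.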

[5] = test system: slender amaranth (Amaranthus viridis L.); assay: as above; conditions: soil surface spray, upland field soil, 1,000 g active ingredient per hectare, 21st day after application
Outline: as §2

[6] = test system: barnyardgrass (Echinochloa crus-galli (L.) P. Beauv. var. crus-galli); assay: as above; conditions: soil surface spray, upland field soil, 1,000 g active ingredient per hectare, 21st day after application
Outline: as §2

[7] = test system: velvetleaf (Abutilon theophrasti medicus); assay: as above; conditions: soil surface spray, upland field soil, 1,000 g active ingredient per hectare, 21st day after application
Outline: as §2

[8] = test system: green foxtail (Setaria viridis (L.) P. Beauv.); assay: Test Example 3: herbicidal effect by application to upland field (foliage treatment); conditions: 14th day after application; for herbicidal effect (index), Green Foxtail: foliage treatment, plants grown two weeks, 1,000 g active ingredient per hectare
Outline: (§3)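 Foliar spray on two-week-old greenhouse weeds in field soil: wettable powder formulation diluted in water, applied at 1,000 L/ha to give 1,000 g a.i./ha. Damage rated by a fixed scoring standard on day 14 after application.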

[9] = test system: slender amaranth (Amaranthus viridis L.); assay: as above; conditions: 14th day after application; for herbicidal effect (index), Slender Amaranth: foliage treatment, plants grown two weeks, 1,000 g active ingredient per hectare
Outline: as §3

[10] = test system: barnyardgrass (Echinochloa crus-galli (L.) P. Beauv. var. crus-galli); assay: as above; conditions: 14th day after application; for herbicidal effect (index), Barnyardgrass: foliage treatment, plants grown two weeks, 1,000 g active ingredient per hectare
Outline: as §3

[11] = test system: velvetleaf (Abutilon theophrasti medicus); assay: as above; conditions: 14th day after application; for herbicidal effect (index), Velvetleaf: foliage treatment, plants grown two weeks, 1,000 g active ingredient per hectare
Outline: as §3

[12] = foliage treatment, 1,000 g active ingredient per 1 hectare, greenhouse

Row | SMILES | herbicidal effect, Echinochloa oryzicola Vasing [1] | herbicidal effect, Monochoria vaginalis (Burm. f.) C. Presl [2] | herbicidal effect, Scirpus juncoides Roxb. [3] | herbicidal effect (index), Green Foxtail [4] | herbicidal effect (index), Slender Amaranth [5] | herbicidal effect (index), Barnyardgrass [6] | herbicidal effect (index), Velvetleaf [7] | herbicidal effect (index), Green Foxtail [8] | herbicidal effect (index), Slender Amaranth [9] | herbicidal effect (index), Barnyardgrass [10] | herbicidal effect (index), Velvetleaf [11] | herbicidal effect, Green Foxtail [8, 12] | herbicidal effect, Slender Amaranth [9, 12] | herbicidal effect, Barnyardgrass [10, 12] | herbicidal effect, Velvetleaf [11, 12]
1 | O=C1CCCC(O)=C1C(=O)c1ccc(C(F)(F)F)n(CS(=O)(=O)C2CCCC2)c1=O [I-60] | 5 (90% or more of herbicidal effect and crop phytotoxicity) | 5 (90% or more of herbicidal effect and crop phytotoxicity) | 5 (90% or more of herbicidal effect and crop phytotoxicity) | 5 (90% or more of herbicidal effect and crop phytotoxicity) | 5 (90% or more of herbicidal effect and crop phytotoxicity) | 5 (90% or more of herbicidal effect and crop phytotoxicity) | 5 (90% or more of herbicidal effect and crop phytotoxicity) | 5 (90% or more of herbicidal effect and crop phytotoxicity) | 5 (90% or more of herbicidal effect and crop phytotoxicity) | 5 (90% or more of herbicidal effect and crop phytotoxicity) | 5 (90% or more of herbicidal effect and crop phytotoxicity) |  |  |  | 
2 | CCCS(=O)(=O)Oc1c(C(=O)c2ccc(C(F)(F)F)n(C)c2=O)cnn1C [IV-196] | 5 (90% or more of herbicidal effect and crop phytotoxicity) | 5 (90% or more of herbicidal effect and crop phytotoxicity) | 5 (90% or more of herbicidal effect and crop phytotoxicity) | 4 (70 to less than 90% of herbicidal effect and crop phytotoxicity) | 5 (90% or more of herbicidal effect and crop phytotoxicity) | 5 (90% or more of herbicidal effect and crop phytotoxicity) | 5 (90% or more of herbicidal effect and crop phytotoxicity) |  |  |  |  | 3 (50 to less than 70% of herbicidal effect and crop phytotoxicity) | 5 (90% or more of herbicidal effect and crop phytotoxicity) | 4 (70 to less than 90% of herbicidal effect and crop phytotoxicity) | 5 (90% or more of herbicidal effect and crop phytotoxicity)
3 | COc1ccc(-n2c(C(F)(F)F)ccc(C(=O)C3=C(O)CCCC3=O)c2=O)c(OC)c1 [I-99] | 5 (90% or more of herbicidal effect and crop phytotoxicity) | 5 (90% or more of herbicidal effect and crop phytotoxicity) | 5 (90% or more of herbicidal effect and crop phytotoxicity) | 4 (70 to less than 90% of herbicidal effect and crop phytotoxicity) | 5 (90% or more of herbicidal effect and crop phytotoxicity) | 5 (90% or more of herbicidal effect and crop phytotoxicity) | 5 (90% or more of herbicidal effect and crop phytotoxicity) | 4 (70 to less than 90% of herbicidal effect and crop phytotoxicity) | 5 (90% or more of herbicidal effect and crop phytotoxicity) | 5 (90% or more of herbicidal effect and crop phytotoxicity) | 5 (90% or more of herbicidal effect and crop phytotoxicity) |  |  |  | 
